This is an account of results in patent US20060057673A1, “Epitope analogs” (priority 2004, published 2006).

Where a SMILES comes first, the peptide text is derived from it. [ ]: non-standard residue; d: D form. Cha = N[C@@H](CC1CCCCC1)C(=O)O

Experiment [1] concerns the target T1, HLA-A*0201 (Homo sapiens, UniProt P04439, D140Y/D185E/D98H/E176V/E277Q/G131W/G231S/I119V/I121R/I166T/I218V/L300P/L318F/N151K/N90K/P208A/P217A/Q86G/Q94H/R138H/R169H/T345S). As to the kind of experiment: Peptide binding using T2 cells. The conditions noted are these: T2 cells pulsed overnight at 37° C.; peptide concentration giving 50% of saturation signal; N/B printed, not defined. Also on record: endogenous in cells; host or cells: T2 cells.

Experiment [2] deals with T1, HLA-A*0201. As to the kind of experiment: iTopia binding assay (% binding). The conditions noted are these: % binding compared to positive control melan-A26-35 A27L. From the text: Avidin-coated microtiter plates containing class I monomer loaded with a so-called placeholder peptide were used to evaluate peptide binding, affinity and off-rate. The monomer-coated plates were supplied as part of the iTopia Epitope Discovery System Kit (Beckman Ciulter, Inc., San Diego, Calif., USA). Assay buffers, anti-MHC-FITC mAb and beta2-microglobulin and control peptides were also supplied with the kits.
This assay measures the ability of individual peptides to bind HLA molecules under standardized optimal binding conditions. Monomer-coated plates were first stripped, releasing the placeholder peptide and leaving only the MHC heavy chain bound to the plate. Test peptides were then introduced under optimal folding conditions, along with the anti-MRC-FITC mAb. Plates were incubated for 18hrs at 21° C. The anti-MHC-FITC mAb binds preferentially to a refolded MHC complex. Therefore, the fluorescence intensity resulted from each peptide was related to the peptide's ability to form complex with MHC molecule. Each peptide's binding was evaluated relative to the positive control peptide provided in the kit, and the results were expressed ‘% binding’.

Experiment [3] concerns target cells loaded with native PRAME425-433 peptide. As to the kind of experiment: In vivo cytotoxicity against native PRAME peptide coated splenocytes (CFSE). The arrangement: species or system HHD transgenic mice. The conditions noted are these: plasmid prime, peptide boost.

Take `CC[C@H](C)[C@H](NC(=O)[C@H](CCCCN)NC(=O)[C@H](CCC(=O)O)NC(=O)[C@H](CO)NC(=O)[C@H](Cc1cccc2ccccc12)NC(=O)[C@@H](N)CCCCN)C(=O)N[C@@H](Cc1ccccc1)C(=O)N[C@@H](Cc1ccc(O)cc1)C(=O)N[C@H](C(=O)O)C(C)C` [SSX2 41-49 (A42(Nal-1)), KNal-1SEKIFYV]: the “Half-maximal Binding (mM)” value in experiment [1] is listed as “N/B”. On the same count and under the same terms, as for `CC[C@H](C)[C@H](NC(=O)[C@H](CCCCN)NC(=O)[C@H](CCC(=O)O)NC(=O)[C@H](CO)NC(=O)[C@H](C)NC(=O)[C@@H](N)CC1CCCCC1)C(=O)N[C@@H](Cc1ccccc1)C(=O)N[C@@H](Cc1ccc(O)cc1)C(=O)N[C@H](C(=O)O)C(C)C` [SSX2 41-49 (K41(Cha))] (H-[Cha]ASEKIFYV-OH), the entry is “N/B”.

For “Phe P1 analog: PRAME425-433 (SLLQHLIGL) analog, Phe for the Ser at the P1 position (FLLQHLIGL)”, the “% binding relative to native PRAME425-433” value in experiment [2] is reported as “exceeded that range on the high side”. Also, the “In vivo cytotoxicity against native PRAME epitope” value in experiment [3] is “capable of expanding the immunity against the native epitope”.
